Results on 2 compounds are retold here after patent publication US20230233545A1, “TREATMENT OF ATRIAL DYSFUNCTION” (MyoKardia, Inc., priority 2020, published 2023).

For assay [1], the system named is beagle dogs (without left ventricular dysfunction). Briefly: AF inducibility and LA size/function with phenylephrine on board, dobutamine (Example 4). The conditions noted are these: FIG. 6. Format: in vivo. How it is done: Once sinus rhythm was re-established (cardioversion was used if AF persisted for more than 30 minutes), a third anesthetized ECHO was performed.
The effects of dobutamine on AF inducibility and LA size and function were examined by echocardiography (ECHO) and electrocardiogram (ECG) in beagle dogs with phenylephrine (PE) on board, and compared to the effects of PE alone. The beagle dogs (without left ventricular dysfunction) were assessed for left atrial function and size and for atrial fibrillation inducibility according to the protocols described in Example 3 (experimental design shown in FIG. 5), allowing for the effects of dobutamine to be compared to those of Compound I as shown in Example 3.

The subject of assay [2] is beagle dogs under isoflurane anesthesia, right-atrial burst pacing. The assay can be described thus: AF inducibility and LA size/function with phenylephrine on board (Example 3). Conditions: P<0.05.

On to `CC(CCc1ccc(O)cc1)NCCc1ccc(O)c(O)c1` (stereo not drawn) [dobutamine], for which, in assay [1] (dobutamine 1-10 μg/kg/hr infusion with PE), the AF duration entry was “did not reduce AF duration, and in fact increased it”. Moreover, the “LV contractility (ΔEF)” value in assay [1] (dobutamine 1-10 μg/kg/hr infusion) is on record as “increase LV contractility”.
Consider `CNC[C@H](O)c1cccc(O)c1` [phenylephrine, reference compound], for which the “SBP, change induced by phenylephrine” value in assay [2] (PE 0.5-20 μg/kg/min fixed rate) stood at 38±7%. In assay [2] (PE 0.5-20 μg/kg/min, from 22.9±2.0), this compound had an LAmin under phenylephrine of 29.3±2.5 mL/m^2. In assay [2] (PE 0.5-20 μg/kg/min, from 88.6±2.7), this compound gave an SBP under phenylephrine of 122.4±6.9 mmHg. The “LAmin, change induced by phenylephrine” value in assay [2] (PE 0.5-20 μg/kg/min, increase) is on record as 28±3%.
